In patent US20060293223A1 (Eli Lilly and Company Patent Division, priority 2003, published 2006):
Positions of bridges follow the written chain, without caps; N, C: chain ends. Non-standard residues stand in square brackets, D forms with d. No end group written: not given here. NMeY = CN[C@@H](Cc1ccc(O)cc1)C(=O)O; hCys = N[C@@H](CCS)C(=O)O

system: MC1/MC4; settings: ratio MC1/MC4
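Note: ratio of EC50 values obtained at MC1 versus MC4 receptors, with MC1 potency measured by luciferase reporter activity in stably transfected cells expressing human MC1.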

Q: How did the MC1/MC4 selectivity turn out when “Ac-Tyr-Arg-cyclo[Cys-Glu-(2-pyrazine-Ala)-D-Phe-Arg-Trp-Cys]-NH2 [Compound 105]” was run?
A: Its MC1/MC4 selectivity is 24.04.

Q: How did the MC1/MC4 selectivity turn out when “Ac-Tyr-Arg-cyclo[Cys-Glu-(5-Me-D-His)-D-Phe-Arg-Trp-Cys]-NH2 [Compound 98]” was run?
A: Its MC1/MC4 selectivity is 7.43.

Q: How did the MC1/MC4 selectivity turn out when “Ac-Tyr-(1-β-hArg)-cyclo[Cys-Glu-His-D-Phe-Arg-Trp-Cys]-NH2 [Compound 127]” was run?
A: The MC1/MC4 selectivity was 20.25.

Q: Which MC1/MC4 selectivity does the source give for “Ac-YRCIH[dF]RWC-NH2 (disulfide 3-9) [Compound 14]” here?
A: The MC1/MC4 selectivity was 12.54.

Q: With “Tyr-Arg-cyclo[Cys-Glu-His-D-Phe-Arg-Trp-Cys]-NH—(CH2)6—NH2 [Compound 70]” as the substance, how does the MC1/MC4 selectivity read?
A: The MC1/MC4 selectivity was 2.00.

Q: Which MC1/MC4 selectivity does the source give for “Ac-YRCTH[dF]RWC-NH2 (disulfide 3-9) [Compound 22]” here?
A: The MC1/MC4 selectivity was 6.85.

Q: How did the MC1/MC4 selectivity turn out when “YR[hCys]H[dF]RWC-NH2 (disulfide 3-8) [Compound 162]” was run?
A: The MC1/MC4 selectivity was 30.07.

Q: “Ac-Tyr-Arg-cyclo[Cys-Glu-(1-benzyl-His)-D-Phe-Arg-Trp-Cys]-NH2 [Compound 99]” was tested. Which MC1/MC4 selectivity did it give?
A: Its MC1/MC4 selectivity is 88.42.

Q: With “N-glutaryl-Tyr-Arg-cyclo[Cys-Glu-His-D-Phe-Arg-Trp-Cys]-NH2 [Compound 75]” as the substance, how does the MC1/MC4 selectivity read?
A: The MC1/MC4 selectivity was 6.00.

Q: “Ac-Cit-cyclo[Cys-Glu-His-D-Phe-Arg-Trp-Cys]-NH2 [Compound 55]” was tested. Which MC1/MC4 selectivity did it give?
A: Its MC1/MC4 selectivity is 28.81.

Q: How did the MC1/MC4 selectivity turn out when “Ac-Tyr-Arg-cyclo[Cys-Glu-(1-Me-D-His)-(4-OMe-D-Phe)-Arg-Trp-Cys]-NH2 [Compound 95]” was run?
A: The MC1/MC4 selectivity was 3.21.

Q: With “Ac-Tyr-Arg-cyclo[Cys-Glu-(β-(2-furyl)-Ala)-D-Phe-Arg-Trp-Cys]-NH2 [Compound 110]” as the substance, how does the MC1/MC4 selectivity read?
A: Its MC1/MC4 selectivity is 4.27.

Q: How did the MC1/MC4 selectivity turn out when “Ac-Tyr-Arg-cyclo[Cys-Glu-(1-Me-His)-(4-F-D-Phe)-Arg-Trp-Cys]-NH2 [Compound 84]” was run?
A: The MC1/MC4 selectivity was 150.60.

Q: Which MC1/MC4 selectivity does the source give for “Ac-Tyr-Arg-cyclo[Cys-Glu-His-D-Phe-Arg-Trp-Cys]-glycinol [Compound 114]” here?
A: Its MC1/MC4 selectivity is 4.00.

Q: For “Ac-Tyr-Arg-cyclo[Cys-Glu-(1-Me-His)-(4-OMe-D-Phe)-Arg-Trp-Cys]-NH2 [Compound 94]”, which MC1/MC4 selectivity is on record?
A: The MC1/MC4 selectivity was 16.97.

Q: With “4-guanidinobutyryl-cyclo[Cys-Glu-His-D-Phe-Arg-Trp-Cys]-NH2 [Compound 41]” as the substance, how does the MC1/MC4 selectivity read?
A: The MC1/MC4 selectivity was 58.47.

Q: How did the MC1/MC4 selectivity turn out when “N-hexanoyl-cyclo[hCys-His-D-Phe-Arg-Trp-penicillamine]-NH2 [Compound 170]” was run?
A: Its MC1/MC4 selectivity is 9.00.

Q: Which MC1/MC4 selectivity does the source give for “Ac-cyclo[hCys-His-D-Phe-Arg-Trp-Cys]-OH [Compound 138]” here?
A: Its MC1/MC4 selectivity is 38.81.

Q: With “Ac-YRCEH[dF]RWCSP-NH2 (disulfide 3-9) [Compound 119]” as the substance, how does the MC1/MC4 selectivity read?
A: The MC1/MC4 selectivity was 0.86.

Q: For “Ac-Tyr-Arg-cyclo[Cys-Glu-(1-Me-D-His)-(4-Cl-D-Phe)-Arg-Trp-Cys]-NH2 [Compound 88]”, which MC1/MC4 selectivity is on record?
A: The MC1/MC4 selectivity was 9.07.

Q: Which MC1/MC4 selectivity does the source give for “Ac-Tyr-Arg-cyclo[Cys-Glu-(β-((1-benzyl)-1,2,4-triazol-3-yl))-D-Ala)-D-Phe-Arg-Trp-Cys]-NH2 [Compound 109]” here?
A: The MC1/MC4 selectivity was 6.05.

Q: How did the MC1/MC4 selectivity turn out when “5-guanidinovaleryl-cyclo[hCys-His-D-Phe-Arg-Trp-Cys]-NH2 [Compound 149]” was run?
A: Its MC1/MC4 selectivity is 51.85.

Q: Which MC1/MC4 selectivity does the source give for “Ac-D-Arg-cyclo[Cys-Glu-His-D-Phe-Arg-Trp-Cys]-NH2 [Compound 52]” here?
A: Its MC1/MC4 selectivity is 30.54.

Q: “Ac-Tyr-Arg-cyclo[Cys-Glu-(β-(1,2,4-triazol-3-yl))-D-Ala)-D-Phe-Arg-Trp-Cys]-NH2 [Compound 107]” was tested. Which MC1/MC4 selectivity did it give?
A: Its MC1/MC4 selectivity is 1.00.

Q: How did the MC1/MC4 selectivity turn out when “Ac-CEH[dF]RWCKP-NH2 (disulfide 1-7) [Compound 35]” was run?
A: Its MC1/MC4 selectivity is 1.17.

Q: “N-(2-naphthalenesulfonylamino-4-oxo-butyryl)-D-Arg-cyclo[Cys-Glu-His-D-Phe-Arg-Trp-Cys]-NH2 [Compound 65]” was tested. Which MC1/MC4 selectivity did it give?
A: Its MC1/MC4 selectivity is 2.70.

Q: How did the MC1/MC4 selectivity turn out when “Ac-YRCDH[dF]RWC-NH2 (disulfide 3-9) [Compound 7]” was run?
A: The MC1/MC4 selectivity was 15.00.

Q: How did the MC1/MC4 selectivity turn out when “Ac-Cit-cyclo[Cys-Glu-(1-Me-His)-D-Phe-Arg-Trp-Cys]-NH2 [Compound 56]” was run?
A: Its MC1/MC4 selectivity is 21.38.

Q: For “cyclo[hCys-His-D-Phe-Arg-Trp-Cys]-NH2 [Compound 132]”, which MC1/MC4 selectivity is on record?
A: The MC1/MC4 selectivity was 77.32.

Q: How did the MC1/MC4 selectivity turn out when “N-cyclobutanecarbonyl-cyclo[hCys-His-D-Phe-Arg-Trp-Cys]-NH2 [Compound 142]” was run?
A: Its MC1/MC4 selectivity is 35.55.

Q: “Ac-Orn-cyclo[Cys-Glu-His-D-Phe-Arg-Trp-Cys]-NH2 [Compound 62]” was tested. Which MC1/MC4 selectivity did it give?
A: Its MC1/MC4 selectivity is 46.91.

Q: For “Ac-Tyr-Arg-cyclo[Cys-Glu-(β-(pyridin-4-yl)-Ala)-D-Phe-Arg-Trp-Cys]-NH2 [Compound 113]”, which MC1/MC4 selectivity is on record?
A: The MC1/MC4 selectivity was 13.51.

Q: “N-cyclopropanecarbonyl-cyclo[hCys-His-D-Phe-Arg-Trp-Cys]-NH2 [Compound 141]” was tested. Which MC1/MC4 selectivity did it give?
A: Its MC1/MC4 selectivity is 83.00.

Q: How did the MC1/MC4 selectivity turn out when “Ac-YRCEH[dF]RWCE-NH2 (disulfide 3-9) [Compound 118]” was run?
A: The MC1/MC4 selectivity was 4.52.

Q: For “N-phenylsulfonyl-cyclo[hCys-His-D-Phe-Arg-Trp-Cys]-NH2 [Compound 150]”, which MC1/MC4 selectivity is on record?
A: The MC1/MC4 selectivity was 12.88.

Q: How did the MC1/MC4 selectivity turn out when “Ac-Tyr-Arg-cyclo[Cys-Glu-(5-Me-His)-D-Phe-Arg-Trp-Cys]-NH2 [Compound 97]” was run?
A: Its MC1/MC4 selectivity is 8.03.

Q: How did the MC1/MC4 selectivity turn out when “Ac-Tyr-Arg-cyclo[Cys-Glu-(1-pyrazolyl-Ala)-D-Phe-Arg-Trp-Cys]-NH2 [Compound 102]” was run?
A: The MC1/MC4 selectivity was 4.76.

Q: “Ac-YR[hCys]H[dF]RWC-OH (disulfide 3-8) [Compound 165]” was tested. Which MC1/MC4 selectivity did it give?
A: Its MC1/MC4 selectivity is 13.53.

Q: How did the MC1/MC4 selectivity turn out when “Ac-Tyr-Arg-cyclo[Cys-Glu-(1-Me-His)-D-Phe-Arg-Trp-Cys]-NH2 [Compound 81]” was run?
A: Its MC1/MC4 selectivity is 101.69.

Q: “Ac-Tyr-Arg-cyclo[Cys-Glu-His-D-Phe-Arg-Trp-Cys]-Ser-Pro alcohol [Compound 120]” was tested. Which MC1/MC4 selectivity did it give?
A: The MC1/MC4 selectivity was 1.00.

Q: How did the MC1/MC4 selectivity turn out when “Ac-YRCQH[dF]RWC-OMe (disulfide 3-9) [Compound 10]” was run?
A: The MC1/MC4 selectivity was 9.50.

Q: “Ac-Tyr-Arg-cyclo[Cys-Glu-His-(4-Me-D-Phe)-Arg-Trp-Cys]-NH2 [Compound 92]” was tested. Which MC1/MC4 selectivity did it give?
A: Its MC1/MC4 selectivity is 12.06.

Q: “Ac-Tyr-Arg-cyclo[Cys-Glu-His-D-Phe-Arg-Trp-Cys]-Ser alcohol [Compound 116]” was tested. Which MC1/MC4 selectivity did it give?
A: The MC1/MC4 selectivity was 4.00.

Q: “Ac-Tyr-Arg-cyclo[Cys-Glu-His-D-Phe-Arg-Trp-Cys]-2-(2-aminoethoxy)ethanol [Compound 115]” was tested. Which MC1/MC4 selectivity did it give?
A: Its MC1/MC4 selectivity is 2.00.

Q: “Ac-Tyr-Arg-cyclo[Cys-Glu-(β-((1-benzyl)-1,2,4-triazol-3-yl))-D-Ala)-D-Phe-Arg-Trp-Cys]-NH2 [Compound 108]” was tested. Which MC1/MC4 selectivity did it give?
A: The MC1/MC4 selectivity was 5.99.

Q: For “cyclo[Cys-His-(4-Cl-D-Phe)-Arg-Trp-hCys]-NH2 [Compound 182]”, which MC1/MC4 selectivity is on record?
A: The MC1/MC4 selectivity was 185.74.

Q: For “[NMeY]RCMH[dF]RWC-NH2 (disulfide 3-9) [Compound 17]”, which MC1/MC4 selectivity is on record?
A: The MC1/MC4 selectivity was 10.42.

Q: For “Ac-CKH[dF]RWC-NH2 (disulfide 1-7) [Compound 16]”, which MC1/MC4 selectivity is on record?
A: The MC1/MC4 selectivity was 2.94.

Q: “N-(2-naphthalenesulfonyl)-D-Arg-cyclo[Cys-Glu-His-D-Phe-Arg-Trp-Cys]-NH2 [Compound 64]” was tested. Which MC1/MC4 selectivity did it give?
A: Its MC1/MC4 selectivity is 4.12.

Q: Which MC1/MC4 selectivity does the source give for “Ac-Tyr-Cit-cyclo[Cys-Glu-(1-Me-His)-D-Phe-Arg-Trp-Cys]-NH2 [Compound 125]” here?
A: Its MC1/MC4 selectivity is 25.08.

Q: How did the MC1/MC4 selectivity turn out when “Ac-LCEH[dF]RWC-NH2 (disulfide 2-8) [Compound 57]” was run?
A: Its MC1/MC4 selectivity is 29.00.

Q: “Ac-Tyr-Arg-cyclo[Cys-Glu-His-D-Phe-Arg-Trp-Cys]-NH-(CH2)6-NH2 [Compound 117]” was tested. Which MC1/MC4 selectivity did it give?
A: Its MC1/MC4 selectivity is 1.00.

Q: For “Arg-cyclo[Cys-His-(4-Cl-D-Phe)-Arg-Trp-hCys]-NH2 [Compound 188]”, which MC1/MC4 selectivity is on record?
A: Its MC1/MC4 selectivity is 29.56.
